Laboratory results taken from ChEMBL document CHEMBL5046315, “CRCM5484: A BET-BDII Selective Compound with Differential Anti-leukemic Drug Modulation” (J Med Chem, 2022).
Calls of active or inactive are those of the source. No cut-off for these calls is given here.

Legend:
[1] = target: Bromodomain-containing protein 2 (Homo sapiens, UniProt P25440); test: Inhibition of BRD2-BD1 (unknown origin) incubated for 6 hrs by HTRF method
[2] = target: T1, E3 ubiquitin-protein ligase TRIM33 (Homo sapiens) (UniProt Q9UPN9); test: Binding affinity to partial length human TRIM33 (D882 to A1087 residues) expressed in bacterial system at 1 uM by BROMOscan method relative to control
T1 sequence (whole entry): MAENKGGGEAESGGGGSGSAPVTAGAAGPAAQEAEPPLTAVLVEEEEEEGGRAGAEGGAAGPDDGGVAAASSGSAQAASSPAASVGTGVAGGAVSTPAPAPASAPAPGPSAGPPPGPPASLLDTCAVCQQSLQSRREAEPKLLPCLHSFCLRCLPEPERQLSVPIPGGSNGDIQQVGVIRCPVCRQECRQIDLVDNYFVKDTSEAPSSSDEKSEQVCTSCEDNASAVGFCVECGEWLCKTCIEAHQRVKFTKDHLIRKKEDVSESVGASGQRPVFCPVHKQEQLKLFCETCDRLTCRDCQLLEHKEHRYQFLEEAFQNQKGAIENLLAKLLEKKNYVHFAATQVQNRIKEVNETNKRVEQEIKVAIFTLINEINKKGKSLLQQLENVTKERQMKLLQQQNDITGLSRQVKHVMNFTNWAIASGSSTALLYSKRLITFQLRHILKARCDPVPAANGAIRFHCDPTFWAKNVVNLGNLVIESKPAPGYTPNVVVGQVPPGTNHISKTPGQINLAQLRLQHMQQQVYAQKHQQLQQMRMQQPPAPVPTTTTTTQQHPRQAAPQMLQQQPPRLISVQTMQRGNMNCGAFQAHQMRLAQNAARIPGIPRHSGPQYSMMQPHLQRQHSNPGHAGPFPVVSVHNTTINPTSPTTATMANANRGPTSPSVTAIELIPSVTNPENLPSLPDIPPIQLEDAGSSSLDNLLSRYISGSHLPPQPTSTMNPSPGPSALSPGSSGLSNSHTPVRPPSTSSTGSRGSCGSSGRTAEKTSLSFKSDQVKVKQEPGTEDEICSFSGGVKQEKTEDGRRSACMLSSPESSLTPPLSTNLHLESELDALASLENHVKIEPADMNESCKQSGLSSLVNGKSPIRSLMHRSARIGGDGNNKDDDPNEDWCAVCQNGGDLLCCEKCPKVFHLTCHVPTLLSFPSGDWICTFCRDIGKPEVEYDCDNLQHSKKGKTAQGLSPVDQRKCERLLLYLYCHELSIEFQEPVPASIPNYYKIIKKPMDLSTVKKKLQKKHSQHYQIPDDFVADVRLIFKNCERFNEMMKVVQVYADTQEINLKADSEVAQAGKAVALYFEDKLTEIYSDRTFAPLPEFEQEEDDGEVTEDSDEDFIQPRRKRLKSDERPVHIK

[3] = system: Acute myeloid leukemic cell; test: Potentiation of vorinostat-induced antileukemic activity against patient derived mouse xenografted acute myeloid leukemic cells assessed as cell viability at 0.16 to 10 uM in absence of bone-marrow derived stromal cell-conditioned medium measured after 72 to 144 hrs by cell-titre glo luminescent assay; assay type: functional, cell-based; settings: Homo sapiens, dose 0.16-10 µM, time lower […], time upper 144.0 hrs
CCRF-CEM [4] = test: Potentiation of AraC-induced antileukemic activity against human CCRF-CEM cells at 4.3 uM in presence of bone-marrow derived stromal cell-conditioned medium; assay type: functional, cell-based
CCRF-CEM [5] = test: Potentiation of cyclopamine-induced antileukemic activity against human CCRF-CEM cells at 4.3 uM in presence of bone-marrow derived stromal cell-conditioned medium; assay type: functional, cell-based
CCRF-CEM [6] = test: Potentiation of decitabine-induced antileukemic activity against human CCRF-CEM cells at 4.3 uM in presence of bone-marrow derived stromal cell-conditioned medium; assay type: functional, cell-based
CCRF-CEM [7] = test: Potentiation of idarubicin-induced antileukemic activity against human CCRF-CEM cells at 4.3 uM in presence of bone-marrow derived stromal cell-conditioned medium; assay type: functional, cell-based
CCRF-CEM [8] = test: Potentiation of idasanutlin-induced antileukemic activity against human CCRF-CEM cells at 4.3 uM in presence of bone-marrow derived stromal cell-conditioned medium; assay type: functional, cell-based
CCRF-CEM [9] = test: Potentiation of idelalisib-induced antileukemic activity against human CCRF-CEM cells at 4.3 uM in presence of bone-marrow derived stromal cell-conditioned medium; assay type: functional, cell-based
CCRF-CEM [10] = test: Potentiation of imatinib-induced antileukemic activity against human CCRF-CEM cells at 4.3 uM in presence of bone-marrow derived stromal cell-conditioned medium; assay type: functional, cell-based
CCRF-CEM [11] = test: Potentiation of niotinib-induced antileukemic activity against human CCRF-CEM cells at 4.3 uM in presence of bone-marrow derived stromal cell-conditioned medium; assay type: functional, cell-based
CCRF-CEM [12] = test: Potentiation of tretinoin-induced antileukemic activity against human CCRF-CEM cells at 4.3 uM in presence of bone-marrow derived stromal cell-conditioned medium; assay type: functional, cell-based
CCRF-CEM [13] = test: Potentiation of vermurafenib-induced antileukemic activity against human CCRF-CEM cells at 4.3 uM in presence of bone-marrow derived stromal cell-conditioned medium; assay type: functional, cell-based
U-937 [14] = test: Potentiation of crenolatinib-induced antileukemic activity against human U-937 cells at 4.3 uM in presence of bone-marrow derived stromal cell-conditioned medium; assay type: functional, cell-based
U-937 [15] = test: Potentiation of imatinib-induced antileukemic activity against human U-937 cells at 4.3 uM in presence of bone-marrow derived stromal cell-conditioned medium; assay type: functional, cell-based
U-937 [16] = test: Potentiation of rigosertib-induced antileukemic activity against human U-937 cells at 4.3 uM in presence of bone-marrow derived stromal cell-conditioned medium; assay type: functional, cell-based
U-937 [17] = test: Potentiation of temsirolimus-induced antileukemic activity against human U-937 cells at 4.3 uM in presence of bone-marrow derived stromal cell-conditioned medium; assay type: functional, cell-based
MOLM-14 [18] = test: Potentiation of 17AAG-induced antileukemic activity against human MOLM-14 cells at 4.3 uM in presence of bone-marrow derived stromal cell-conditioned medium; assay type: functional, cell-based
MOLM-14 [19] = test: Potentiation of birinapant-induced antileukemic activity against human MOLM-14 cells at 4.3 uM in presence of bone-marrow derived stromal cell-conditioned medium; assay type: functional, cell-based
MOLM-14 [20] = test: Potentiation of bleomycine-induced antileukemic activity against human MOLM-14 cells at 4.3 uM in presence of bone-marrow derived stromal cell-conditioned medium; assay type: functional, cell-based
MOLM-14 [21] = test: Potentiation of crenolatinib-induced antileukemic activity against human MOLM-14 cells at 4.3 uM in presence of bone-marrow derived stromal cell-conditioned medium; assay type: functional, cell-based
MOLM-14 [22] = test: Potentiation of decitabine-induced antileukemic activity against human MOLM-14 cells at 4.3 uM in presence of bone-marrow derived stromal cell-conditioned medium; assay type: functional, cell-based
MOLM-14 [23] = test: Potentiation of GSK2879552-induced antileukemic activity against human MOLM-14 cells at 4.3 uM in presence of bone-marrow derived stromal cell-conditioned medium; assay type: functional, cell-based
MOLM-14 [24] = test: Potentiation of temsirolimus-induced antileukemic activity against human MOLM-14 cells at 4.3 uM in presence of bone-marrow derived stromal cell-conditioned medium; assay type: functional, cell-based
MOLM-14 [25] = test: Potentiation of tretinoin-induced antileukemic activity against human MOLM-14 cells at 4.3 uM in presence of bone-marrow derived stromal cell-conditioned medium; assay type: functional, cell-based
MOLM-14 [26] = test: cells; settings: Homo sapiens, MOLM-14, 72 h
Description: Cytotoxicity against human MOLM-14 cells assessed as reduction in cell viability incubated for 72 hrs

Bromodomain-containing protein 2, sequence (P25440 whole entry, the tested form may be a part): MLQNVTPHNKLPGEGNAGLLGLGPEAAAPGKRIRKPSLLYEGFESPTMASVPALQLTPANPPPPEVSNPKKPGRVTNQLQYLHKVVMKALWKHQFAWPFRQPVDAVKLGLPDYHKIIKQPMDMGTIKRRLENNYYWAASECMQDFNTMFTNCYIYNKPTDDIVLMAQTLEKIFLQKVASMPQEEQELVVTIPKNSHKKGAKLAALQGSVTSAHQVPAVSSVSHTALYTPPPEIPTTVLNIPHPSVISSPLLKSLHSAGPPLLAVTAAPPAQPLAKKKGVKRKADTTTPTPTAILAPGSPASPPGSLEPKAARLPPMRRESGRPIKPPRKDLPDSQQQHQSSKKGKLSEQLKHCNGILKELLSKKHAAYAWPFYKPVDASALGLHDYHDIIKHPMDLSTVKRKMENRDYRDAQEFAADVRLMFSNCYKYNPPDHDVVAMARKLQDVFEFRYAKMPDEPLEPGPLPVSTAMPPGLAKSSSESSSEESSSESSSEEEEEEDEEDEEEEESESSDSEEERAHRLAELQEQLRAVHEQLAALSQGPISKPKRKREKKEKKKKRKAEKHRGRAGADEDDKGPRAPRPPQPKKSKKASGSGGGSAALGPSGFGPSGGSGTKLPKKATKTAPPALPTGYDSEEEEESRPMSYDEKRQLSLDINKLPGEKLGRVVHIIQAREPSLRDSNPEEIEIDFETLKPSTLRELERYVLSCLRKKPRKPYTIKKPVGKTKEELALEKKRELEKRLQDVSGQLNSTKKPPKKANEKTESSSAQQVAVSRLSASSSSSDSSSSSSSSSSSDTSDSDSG

**Q.** With `CC(=O)N1CCc2c(sc3nc(SCC(=O)Nc4cccnc4C)n(Cc4ccco4)c(=O)c23)C1` as the compound, how does the IC50 [1] read?
**A.** 4.7 µM

**Q.** What about the Activity [2] of the same compound?
**A.** 52%

**Q.** And the Activity [3]?
**A.** inactive

**Q.** And the Activity (CCRF-CEM [4])?
**A.** inactive

**Q.** And the Activity (CCRF-CEM [5])?
**A.** inactive

**Q.** And the Activity (CCRF-CEM [6])?
**A.** inactive

**Q.** What about the Activity (CCRF-CEM [7]) of the same compound?
**A.** inactive

**Q.** And the Activity (CCRF-CEM [8])?
**A.** inactive

**Q.** What about the Activity (CCRF-CEM [9]) of the same compound?
**A.** inactive

**Q.** What about the Activity (CCRF-CEM [10]) of the same compound?
**A.** inactive

**Q.** And the Activity (CCRF-CEM [11])?
**A.** inactive

**Q.** What about the Activity (CCRF-CEM [12]) of the same compound?
**A.** inactive

**Q.** What about the Activity (CCRF-CEM [13]) of the same compound?
**A.** inactive

**Q.** What about the Activity (U-937 [14]) of the same compound?
**A.** inactive

**Q.** What about the Activity (U-937 [15]) of the same compound?
**A.** inactive

**Q.** And the Activity (U-937 [16])?
**A.** inactive

**Q.** What about the Activity (U-937 [17]) of the same compound?
**A.** inactive

**Q.** What about the Activity (MOLM-14 [18]) of the same compound?
**A.** inactive

**Q.** And the Activity (MOLM-14 [19])?
**A.** inactive

**Q.** What about the Activity (MOLM-14 [20]) of the same compound?
**A.** inactive

**Q.** What about the Activity (MOLM-14 [21]) of the same compound?
**A.** inactive

**Q.** And the Activity (MOLM-14 [22])?
**A.** inactive

**Q.** And the Activity (MOLM-14 [23])?
**A.** inactive

**Q.** And the Activity (MOLM-14 [24])?
**A.** inactive

**Q.** What about the Activity (MOLM-14 [25]) of the same compound?
**A.** inactive

**Q.** And the EC50 (MOLM-14 [26])?
**A.** 8.5 µM
